Experimental data: ChEMBL document CHEMBL6103538, “Carbonic anhydrases: Moiety appended derivatives, medicinal and pharmacological implications” (Bioorg Med Chem, 2024)

How the values were obtained:
Carbonic anhydrase 2 [1] = target: T1, Carbonic anhydrase 2 (Homo sapiens, UniProt P00918); experiment: Binding affinity to human CA II assessed as inhibition constant by spectrophotometric analysis
Carbonic anhydrase 4 = Carbonic anhydrase 4 (Homo sapiens, UniProt P22748); experiment: Binding affinity to human CA4 assessed as inhibition constant
Sequence of Carbonic anhydrase 4 (P22748 whole entry): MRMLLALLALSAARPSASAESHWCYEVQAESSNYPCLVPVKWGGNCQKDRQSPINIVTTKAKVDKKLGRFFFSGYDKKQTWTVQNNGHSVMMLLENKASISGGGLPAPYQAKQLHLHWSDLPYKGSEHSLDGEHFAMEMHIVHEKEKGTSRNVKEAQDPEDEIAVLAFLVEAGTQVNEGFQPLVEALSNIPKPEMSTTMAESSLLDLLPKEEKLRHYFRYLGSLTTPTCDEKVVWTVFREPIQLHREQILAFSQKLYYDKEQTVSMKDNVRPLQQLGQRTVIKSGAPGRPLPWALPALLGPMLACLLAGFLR

MCF7 [2] = experiment: cells; type: functional, cell-based; conditions: Homo sapiens
Carbonic anhydrase 9 [3] = target: T2, Carbonic anhydrase 9 (Homo sapiens, UniProt Q16790); experiment: Binding affinity human CA IX assessed as inhibition constant
HCT-116 = experiment: cells; type: functional, cell-based; conditions: Homo sapiens
Description: Cytotoxicity against human HCT-116 cells

Homo sapiens [4] = species on record: Homo sapiens; experiment: Selectivity ratio of IC50 for human CA I to IC50 for human CA II
[5] = target: Carbonic anhydrase 5B, mitochondrial (Homo sapiens, UniProt Q9Y2D0); experiment: Binding affinity to human CA VB-catalysed CO2 hydration activity assessed as inhibition constant pre-incubated for 15 mins by stopped-flow instrument method
Sequence of Carbonic anhydrase 5B, mitochondrial (Q9Y2D0 whole entry): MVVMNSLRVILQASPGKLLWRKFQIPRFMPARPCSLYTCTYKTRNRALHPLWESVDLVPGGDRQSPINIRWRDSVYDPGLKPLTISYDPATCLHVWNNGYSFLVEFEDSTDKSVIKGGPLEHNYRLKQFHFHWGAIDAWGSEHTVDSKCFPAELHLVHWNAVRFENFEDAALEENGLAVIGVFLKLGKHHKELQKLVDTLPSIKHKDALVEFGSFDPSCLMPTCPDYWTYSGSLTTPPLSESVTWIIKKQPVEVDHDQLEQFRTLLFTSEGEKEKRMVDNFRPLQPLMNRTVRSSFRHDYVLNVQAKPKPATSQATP

Carbonic anhydrase 2 [6] = target: T1, Carbonic anhydrase 2; experiment: Binding affinity to human CA II assessed as inhibition constant pre-incubated for 15 mins by stopped-flow CO2-hydrase assay method
HepG2 [7] = experiment: Anticancer activity against human HepG2 cells assessed as reduction in cell viability measured after 72 hrs by MTT assay; type: functional, cell-based; conditions: HepG2, 72 h
MDA-MB-231 [8] = experiment: Anticancer activity against human MDA-MB-231 cells assessed as reduction in cell viability measured after 72 hrs by MTT assay; type: functional, cell-based; conditions: MDA-MB-231, 72 h
MCF7 [9] = experiment: Anticancer activity against human MCF7 cells assessed as reduction in cell viability measured after 72 hrs by MTT assay; type: functional, cell-based; conditions: MCF7, 72 h
HepG2 [10] = experiment: Antiproliferative activity against human HepG2 cells assessed as reduction in cell viability by SRB assay; type: functional, cell-based
A549 = experiment: Antiproliferative activity against human A549 cells assessed as reduction in cell viability by SRB assay; type: functional, cell-based
MCF7 [11] = experiment: Antiproliferative activity against human MCF7 cells assessed as reduction in cell viability by SRB assay; type: functional, cell-based
Carbonic anhydrase 2 [12] = target: T1, Carbonic anhydrase 2; experiment: Inhibition of human Carbonic anhydrase 2
Carbonic anhydrase 2 [13] = target: T1, Carbonic anhydrase 2; experiment: Binding affinity to human CA II assessed as inhibition constant
Carbonic anhydrase 1 [14] = target: T3, Carbonic anhydrase 1 (Homo sapiens, UniProt P00915); experiment: Binding affinity to human CA I assessed as inhibition constant by spectrophotometric analysis
T3 sequence (P00915 whole entry): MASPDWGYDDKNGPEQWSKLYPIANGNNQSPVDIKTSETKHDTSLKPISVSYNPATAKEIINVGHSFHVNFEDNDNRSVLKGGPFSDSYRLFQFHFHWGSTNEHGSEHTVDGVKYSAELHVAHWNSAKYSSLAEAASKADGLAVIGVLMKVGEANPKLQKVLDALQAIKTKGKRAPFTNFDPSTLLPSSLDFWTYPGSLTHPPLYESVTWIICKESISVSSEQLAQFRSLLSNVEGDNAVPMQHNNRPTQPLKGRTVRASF

MCF7 [15] = experiment: Cytotoxicity against human MCF7 cells assessed as reduction in cell viability incubated for 24 hrs by MTT assay; type: functional, cell-based; conditions: MCF7, 24 h
Carbonic anhydrase 2 [16] = target: T1, Carbonic anhydrase 2; experiment: Binding affinity to human Carbonic anhyrase 2 assessed as inhibition constant pre-incubated for 10 mins by stopped-flow instrument based assay
Carbonic anhydrase 1 [17] = target: T3, Carbonic anhydrase 1; experiment: Binding affinity to human Carbonic anhyrase 1 assessed as inhibition constant pre-incubated for 10 mins by stopped-flow instrument based assay
Carbonic anhydrase 1 [18] = target: T3, Carbonic anhydrase 1; experiment: Binding affinity to human CA I assessed as inhibition constant
Carbonic anhydrase 12 [19] = target: T4, Carbonic anhydrase 12 (Homo sapiens, UniProt O43570); experiment: Binding affinity to human CA XII assessed as inhibition constant
T4 sequence (O43570 whole entry): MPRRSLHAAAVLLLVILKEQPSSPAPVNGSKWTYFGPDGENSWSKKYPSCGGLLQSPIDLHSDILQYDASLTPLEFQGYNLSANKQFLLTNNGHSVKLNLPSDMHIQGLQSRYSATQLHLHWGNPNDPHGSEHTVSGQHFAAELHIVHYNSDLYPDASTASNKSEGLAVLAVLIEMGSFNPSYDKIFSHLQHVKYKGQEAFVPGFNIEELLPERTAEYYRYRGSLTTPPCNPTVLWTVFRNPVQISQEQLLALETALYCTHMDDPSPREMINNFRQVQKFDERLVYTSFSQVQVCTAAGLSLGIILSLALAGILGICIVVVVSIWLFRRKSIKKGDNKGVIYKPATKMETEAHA

MCF7 [20] = experiment: Anticancer activity against human MCF7 cells assessed as reduction in cell viability under normoxia condition; type: functional, cell-based
[21] = Inhibition of Hsp70 (unknown origin); design: species or system Homo sapiens
MCF7 [22] = experiment: Anticancer activity against human MCF7 cells assessed as reduction in cell viability under hypoxia condition; type: functional, cell-based
MDA-MB-231 [23] = experiment: Anticancer activity against human MDA-MB-231 cells assessed as reduction in cell viability under hypoxia condition; type: functional, cell-based
MDA-MB-231 [24] = experiment: Anticancer activity against human MDA-MB-231 cells assessed as reduction in cell viability under normoxia condition; type: functional, cell-based
Carbonic anhydrase 9 [25] = target: T2, Carbonic anhydrase 9; experiment: Inhibition of human Carbonic anhydrase IX
Carbonic anhydrase 1 [26] = target: T3, Carbonic anhydrase 1; experiment: Inhibition of human Carbonic anhydrase 1
Homo sapiens [27] = species on record: Homo sapiens; experiment: Selectivity ratio of IC50 for human CA IX to IC50 for human CA II
Carbonic anhydrase 9 [28] = target: T2, Carbonic anhydrase 9; experiment: Binding affinity to human recombinant CA IX assessed as inhibition constant
Carbonic anhydrase 12 [29] = target: T4, Carbonic anhydrase 12; experiment: Binding affinity to human recombinant CA XII assessed as inhibition constant
PC-3 = experiment: Cytotoxicity against human PC-3 cells assessed as reduction in cell viability incubated for 24 hrs by MTT assay; type: functional, cell-based; conditions: PC-3, 24 h
HT-29 = experiment: Cytotoxicity against human HT-29 cells assessed as reduction in cell viability incubated for 24 hrs by MTT assay; type: functional, cell-based; conditions: HT-29, 24 h

Cc1ccnc(NS(=O)(=O)c2ccc(NC(=S)NC(=O)c3ccc(F)cc3)cc2)n1
Ki (Carbonic anhydrase 2 [1]): 8.15 nM

Cc1c(/C=N/Nc2nc(-c3ccc(F)cc3)cs2)nnn1-c1cccc(S(N)(=O)=O)c1
Ki (Carbonic anhydrase 4): 88 nM

Cc1nn(-c2ccc(S(N)(=O)=O)cc2)c2c1C(c1ccc(F)cc1F)C(C#N)=C(N)O2 (stereo unspecified)
IC50 (MCF7 [2]): 1690 nM
Ki (Carbonic anhydrase 9 [3]): 19 nM
IC50 (HCT-116): 1300 nM

COC(=O)[C@H]1O[C@@H](NC(=O)c2ccc(S(N)(=O)=O)cc2)[C@H](O)[C@@H](O)[C@@H]1O
Ratio IC50 (Homo sapiens [4]): 44.4

COc1ccccc1NC(=O)SOS(N)(=O)=O
Ki [5]: 345 nM

NS(=O)(=O)c1ccc(-c2ccc(-c3cnc(C(=O)N4CCNCC4)o3)s2)cc1
Ki (Carbonic anhydrase 2 [6]): 4 nM

NS(=O)(=O)c1ccc(NC(=S)NC(=O)c2ccc3c(c2)C(=O)c2ccccc2C3=O)cc1
IC50 (HepG2 [7]): 28100 nM
IC50 (MDA-MB-231 [8]): 46200 nM
IC50 (MCF7 [9]): 69400 nM

Cc1ccc(-c2c(/C=N/NC(=O)C34CC5CC(CC(C5)C3)C4)n[nH]c2-c2ccccc2)cc1
IC50 (HepG2 [10]): < 5000 nM
IC50 (A549): < 5000 nM
IC50 (MCF7 [11]): < 5000 nM

NS(=O)(=O)c1ccc(CCNC(=O)c2ccc3c(c2)C(=O)c2ccccc2C3=O)cc1
IC50 (Carbonic anhydrase 2 [12]): 21.2 nM

Cn1c(N)c(NCc2cc(I)ccc2O)c(=O)n(C)c1=O
Ki (Carbonic anhydrase 2 [13]): 16.3 nM

O=C(NC(=S)Nc1ccc(S(=O)(=O)Nc2nccs2)cc1)c1ccc(F)cc1
Ki (Carbonic anhydrase 1 [14]): 14 nM

CCOc1ccccc1NC(=O)SOS(N)(=O)=O
Ki [5]: 271 nM

Cc1ccc(C(C)C)cc1OCc1cn(CCCCCCOc2ccc3ccc(=O)oc3c2)nn1
IC50 (MCF7 [15]): 2480 nM

Cc1ccc(C(=O)/C=C/c2cn(Cc3cn(-c4ccc(S(N)(=O)=O)cc4)nn3)c3ccccc23)cc1
Ki (Carbonic anhydrase 2 [16]): 36.2 nM
Ki (Carbonic anhydrase 1 [17]): 50.4 nM

Cn1c(N)c(NCc2ccc(Br)cc2O)c(=O)n(C)c1=O
Ki (Carbonic anhydrase 1 [18]): 36.1 nM

CCOC(=O)c1sc2ncnc(Nc3ccc(S(N)(=O)=O)cc3)c2c1C
Ki (Carbonic anhydrase 2 [13]): 8.6 nM
Ki (Carbonic anhydrase 9 [3]): 13.8 nM
Ki (Carbonic anhydrase 12 [19]): 19 nM

COc1cccc(C(=O)/C=C/c2cn(Cc3cn(-c4ccc(S(N)(=O)=O)cc4)nn3)c3ccccc23)c1
Ki (Carbonic anhydrase 2 [16]): 716 nM
Ki (Carbonic anhydrase 1 [17]): 38.3 nM

Cc1ccc(C)c(NC(=O)SOS(N)(=O)=O)c1
Ki [5]: 516 nM

NS(=O)(=O)c1ccc(C(=O)Nc2nc(C(=O)OCCN3CCOCC3)cs2)cc1
Ki (Carbonic anhydrase 1 [18]): 49.8 nM
Ki (Carbonic anhydrase 2 [13]): 5.97 nM

N=C(N)NS(=O)(=O)c1ccc(/N=N/Nc2c(F)c(F)c(F)c(F)c2F)cc1
Ki (Carbonic anhydrase 2 [13]): 8.16 nM

Cc1ccc(NC(=O)SOS(N)(=O)=O)cc1
Ki [5]: 462 nM

COc1cccc(NC(=O)Nc2cccc(OC)c2)c1
IC50 (MCF7 [20]): 3700 nM
IC50 [21]: 15300 nM
IC50 (MCF7 [22]): 1100 nM
IC50 (MDA-MB-231 [23]): 12400 nM
IC50 (MDA-MB-231 [24]): 6300 nM

CCCCCCCCn1c2ccccc2c2cc(/N=C/c3cccc(O)c3O)ccc21
IC50 (Carbonic anhydrase 2 [12]): 21800 nM

Clc1ccccc1-c1nc2cc(-c3ccc4[nH]c(-c5ccccc5Cl)nc4c3)ccc2[nH]1
IC50 (Carbonic anhydrase 9 [25]): 5230 nM

COc1ccc(C2C(C#N)=C(N)Oc3c2c(C)nn3-c2ccc(S(N)(=O)=O)cc2)cc1O (stereo unspecified)
IC50 (MCF7 [2]): 1880 nM
Ki (Carbonic anhydrase 9 [3]): 12 nM
IC50 (HCT-116): 4620 nM

COc1cccc(NC(=O)Nc2ccc(S(N)(=O)=O)cc2)c1
IC50 (MCF7 [20]): 4600 nM
IC50 [21]: 19400 nM
IC50 (MCF7 [22]): 14400 nM
IC50 (MDA-MB-231 [23]): 12500 nM
Ki (Carbonic anhydrase 9 [3]): 4.1 nM
Ki (Carbonic anhydrase 12 [19]): 9.1 nM
IC50 (MDA-MB-231 [24]): 6300 nM

CCOC(=O)c1sc(NC(=O)c2ccc(S(N)(=O)=O)cc2)nc1C(F)(F)F
Ki (Carbonic anhydrase 1 [18]): 38.5 nM
Ki (Carbonic anhydrase 2 [13]): 7.36 nM

NC1=C(n2c(-c3ccc(Cl)cc3)cs/c2=N\C(=O)c2c(F)cccc2F)C(=O)c2ccccc2C1=O
Ki (Carbonic anhydrase 1 [18]): 67.9 nM

CCCCCCCCn1c2ccccc2c2cc(/N=C/c3ccc(O)c(O)c3)ccc21
IC50 (Carbonic anhydrase 1 [26]): 32100 nM

NS(=O)(=O)c1ccc(C(=O)Nc2nc(C(=O)OCCCN3CCOCC3)cs2)cc1
Ki (Carbonic anhydrase 1 [18]): 27.3 nM
Ki (Carbonic anhydrase 2 [13]): 6.92 nM

CC(=O)C(C)/C(C)=N/NC(=O)C12CC3CC(CC(C3)C1)C2 (stereo unspecified)
IC50 (HepG2 [10]): < 5000 nM
IC50 (A549): < 5000 nM
IC50 (MCF7 [11]): < 5000 nM

O=C(NC(=S)Nc1ccc(S(=O)(=O)Nc2nccs2)cc1)c1ccccc1
Ki (Carbonic anhydrase 1 [14]): 20.7 nM

NS(=O)(=O)c1ccc(-n2cc(Cn3cc(/C=C/C(=O)c4ccc(Br)cc4)c4ccccc43)nn2)cc1
Ki (Carbonic anhydrase 2 [16]): 468 nM
Ki (Carbonic anhydrase 1 [17]): 18.8 nM

Cc1nn(-c2ccc(S(N)(=O)=O)cc2)c2c1C(c1c(F)cccc1F)C(C#N)=C(N)O2 (stereo unspecified)
Ratio IC50 (Homo sapiens [27]): 7.42
Ratio IC50 (Homo sapiens [4]): 14.3
Ki (Carbonic anhydrase 9 [3]): 19 nM

Cc1sc2ncnc(Nc3ccc(S(N)(=O)=O)cc3)c2c1C
Ki (Carbonic anhydrase 9 [3]): 16.1 nM

COc1ccc(-c2cs/c(=N\C(=O)c3c(F)cccc3F)n2C2=C(N)C(=O)c3ccccc3C2=O)cc1
Ki (Carbonic anhydrase 2 [13]): 55.3 nM

Nc1nn(C(=O)C23CC4CC(CC(C4)C2)C3)c(N)c1/N=N/c1ccccc1
IC50 (HepG2 [10]): < 5000 nM
Ki (Carbonic anhydrase 9 [28]): 85 nM
Ki (Carbonic anhydrase 12 [29]): 140 nM
IC50 (MCF7 [11]): < 5000 nM

Cc1ccc(C(C)C)c(OCc2cn(CCCCOc3ccc4ccc(=O)oc4c3)nn2)c1
IC50 (PC-3): 9400 nM
IC50 (HT-29): 12100 nM

C/C(=N\Nc1nc(-c2ccc(C)cc2)cs1)c1nnn(-c2ccc(S(N)(=O)=O)cc2)c1C
Ki (Carbonic anhydrase 1 [18]): 40.6 nM

NS(=O)(=O)c1ccc(C(=O)Nc2ncc(C(=O)NCCN3CCOCC3)s2)cc1
Ki (Carbonic anhydrase 1 [18]): 45.9 nM
Ki (Carbonic anhydrase 2 [13]): 6.51 nM

CC(=O)c1ccc(N/N=N/c2ccc(S(=O)(=O)NC(=N)N)cc2)cc1
Ki (Carbonic anhydrase 1 [18]): 6.44 nM
